From publication PMC5126668 (PeerJ, 2016)
Where “and” joins values, the source holds several entries; their conditions need not be identical. Equal values may be shown once. Read-outs that look alike come from different tables or passages of the source.

Experiments:
[1] = HK-2 cell viability, MTT assay, with or without co-cultured HLMs; format: cell-based, human; conditions: human; for viability at 4 h, 30 µM: BAK 30 µM; for viability at 4 h, 75 µM: BAK 75 µM; for viability at 4 h, 90 µM: BAK 90 µM; for viability at 4 h, 45 µM: BAK 45 µM; for viability at 4 h, 60 µM: BAK 60 µM
Procedure: HK-2 cells obtained from Peking Union Medical College were maintained in D/F12 medium containing 10% fetal bovine serum, 2 mM glutamine and 1 × 10^5 U/L penicillin and streptomycin at 37 °C in a 5% CO2 atmosphere. […] The samples containing HLMs were prepared in an ice bath, and three replicates were tested for each dose. In brief, HK-2 cells (100 µL) were seeded at 3 × 10^5cells/mL in 96-well plates. After 12 h, 200 µL of the test compound was added. For the BAK and GA with HLMs group, GA was pre-incubated with NADPH in HLMs for 30 min at 37 °C and then mixed with BAK; for the other groups, all tested compounds except NADPH were mixed, and NADPH was then added to start the metabolic reaction. After 4 h of culture, 100 µL of 0.5 g/L MTT was added, and the cells were cultured for 4 h. Subsequently, 150 µL of 4% isopropanol was added to cells for 15 min at 37 °C, and the absorbance at 570 nm was then read by a microplate reader (Multiskan MK3, Thermo, USA). The relative cell viability (%) was calculated as follows: Mean Absorbance of Sample/Mean Absorbance of Vehicle Control × 100%.

[2] = BAK exposure in rat liver and kidney 24 h after dosing; format: in vivo, Sprague–Dawley rats; conditions: for concentration at 24 h: Sprague-Dawley, po, 200 mg/kg
Procedure: The liver and kidney tissue were also collected from individual rats 24 h after dosing, weighed and then homogenized in saline solution (0.6 g wet weight/mL) on ice. Subsequently, 10 µL of internal standard solution (tanshinone II A, 10 µg/mL) and 0.3 mL of acetonitrile were added to 0.1 mL of plasma or homogenates, and centrifuged at 13,300 rpm for 15 min after 2 min of vortexing. The supernatant was reconstituted in 100 µL of mobile phase after drying under 40 °C nitrogen, the mixture then was vortexed for 5 min and centrifuged at 13,300 rpm for 15 min. Finally, 20 µL of supernatant was injected for HPLC analysis. […] The mobile phase consisted of methanol and water with 0.1% formic acid (89:11, v/v) and was supplied at a flow rate of 0.8 mL/min. The detection wavelength was set to 262 nm. […] The recovery was >93%.

CYP3A4 = target: T1, CYP3A4 (Homo sapiens, UniProt P08684); test: Inhibition of CYP activities by GA in HLMs (midazolam); format: biochemical
T1 construct: was investigated in HLMs; tissue iPhase Pharmaceutical Services (Beijing, China) Lot # 7MMC011; host or cells: pooled human liver microsomes
Procedure: (§1) The samples containing HLMs were prepared in an ice bath, and three replicates of each dose were tested.
(§2) The reaction system consisted of 0.5 g/L HLMs, 1 mM NADPH, 25 µM phenacetin (CYP1A2 substrate), 25 µM tolbutamide (CYP2C9 substrate), 25 µM mephenytoin (CYP2C19 substrate), 10 µM dextromethorphan (CYP2D6 substrate) and 10 µM midazolam (CYP3A4 substrate). After incubation at 37 °C for 30 min, 200 µL of methanol containing 100 µg/L propranolol hydrochloride was added to terminate the reaction. The samples were then treated, and the corresponding substrate metabolites of CYP isoforms were detected according to a previously described method ([Shen et al., 2013]).

CYP2D6 = target: T2, CYP2D6 (Homo sapiens, UniProt P10635); test: Inhibition of CYP activities by GA in HLMs (dextromethorphan); format: biochemical
T2 construct: was investigated in HLMs; tissue iPhase Pharmaceutical Services (Beijing, China) Lot # 7MMC011; host or cells: pooled human liver microsomes
Procedure: as §1, §2

CYP1A2 = target: T3, CYP1A2 (Homo sapiens, UniProt P05177); test: Inhibition of CYP activities by GA in HLMs (phenacetin); format: biochemical
T3 construct: tissue iPhase Pharmaceutical Services (Beijing, China) Lot # 7MMC011; host or cells: pooled human liver microsomes
T3 sequence (P05177 1-516): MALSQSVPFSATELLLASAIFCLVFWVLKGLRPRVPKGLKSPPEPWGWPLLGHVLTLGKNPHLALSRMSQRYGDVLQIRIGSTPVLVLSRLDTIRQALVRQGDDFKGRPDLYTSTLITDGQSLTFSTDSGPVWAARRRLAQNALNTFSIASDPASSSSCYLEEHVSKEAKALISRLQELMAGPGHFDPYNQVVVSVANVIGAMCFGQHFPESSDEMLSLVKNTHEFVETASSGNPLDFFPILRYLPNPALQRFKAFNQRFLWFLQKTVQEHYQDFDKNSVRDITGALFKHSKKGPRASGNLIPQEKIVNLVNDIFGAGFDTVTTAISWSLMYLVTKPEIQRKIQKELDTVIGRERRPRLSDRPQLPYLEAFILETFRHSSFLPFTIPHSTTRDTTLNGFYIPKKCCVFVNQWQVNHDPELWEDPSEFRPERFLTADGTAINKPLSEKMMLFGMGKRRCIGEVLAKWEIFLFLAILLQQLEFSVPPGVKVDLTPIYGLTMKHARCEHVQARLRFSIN
Procedure: as §1, §2

[3] = with HLM, raw data, read-out: cell viability(%), single values
[4] = HK-2 cells co-cultured with HLMs (0.16 g/L), with HLMs 0.16 g/L, 4 h, mean, read-out: HK-2 Cell viability (%)
[5] = HK-2 cells, without HLMs, without HLMs, 4 h, mean, read-out: HK-2 Cell viability (%)

T1 sequence (P08684 whole entry): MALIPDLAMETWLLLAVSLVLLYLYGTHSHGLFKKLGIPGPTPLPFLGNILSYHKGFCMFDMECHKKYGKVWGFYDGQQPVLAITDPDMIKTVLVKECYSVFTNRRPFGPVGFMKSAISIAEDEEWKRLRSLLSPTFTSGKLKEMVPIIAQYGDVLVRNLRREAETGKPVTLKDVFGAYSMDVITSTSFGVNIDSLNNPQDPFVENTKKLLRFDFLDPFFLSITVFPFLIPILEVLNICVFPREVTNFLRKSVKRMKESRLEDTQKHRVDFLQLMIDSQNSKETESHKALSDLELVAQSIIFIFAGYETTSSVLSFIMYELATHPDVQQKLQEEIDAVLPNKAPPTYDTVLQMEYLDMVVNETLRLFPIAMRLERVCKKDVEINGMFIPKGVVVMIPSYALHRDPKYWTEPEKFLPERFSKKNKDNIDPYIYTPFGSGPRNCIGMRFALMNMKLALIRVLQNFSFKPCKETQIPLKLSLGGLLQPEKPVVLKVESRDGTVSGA
T2 sequence (P10635 whole entry): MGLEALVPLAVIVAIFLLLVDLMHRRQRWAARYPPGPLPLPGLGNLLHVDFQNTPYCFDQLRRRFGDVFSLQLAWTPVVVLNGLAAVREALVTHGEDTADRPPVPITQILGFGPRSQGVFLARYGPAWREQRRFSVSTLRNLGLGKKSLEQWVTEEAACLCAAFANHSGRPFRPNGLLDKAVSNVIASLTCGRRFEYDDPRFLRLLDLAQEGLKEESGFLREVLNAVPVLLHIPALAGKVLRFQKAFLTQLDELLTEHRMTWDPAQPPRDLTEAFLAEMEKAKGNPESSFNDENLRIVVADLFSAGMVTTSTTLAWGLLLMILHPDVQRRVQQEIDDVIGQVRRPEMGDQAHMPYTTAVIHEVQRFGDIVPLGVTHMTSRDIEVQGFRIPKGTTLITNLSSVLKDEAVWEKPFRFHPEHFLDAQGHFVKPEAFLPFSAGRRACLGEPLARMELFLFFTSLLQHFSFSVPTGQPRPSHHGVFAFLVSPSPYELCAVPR

## C=C[C@@](C)(/C=C/c1ccc(O)cc1)CCC=C(C)C [BAK, Bakuchiol]
[1]; [3]
  viability at 4 h, 30 µM: 98.8%
  viability at 4 h, 75 µM: 108%
  viability at 4 h, 90 µM: 88.2%
[1]; [4]
  viability at 4 h, 30 µM: 104 ± 4.32%
  viability at 4 h, 60 µM: 101 ± 9.76%
  viability at 4 h, 75 µM: 109 ± 3.19%
  viability at 4 h, 90 µM: 92.5 ± 2.07%
[1]; HK-2 cells co-cultured with HLMs (0.16 g/L), with HLMs 0.16 g/L, 4 h, mean
  viability at 4 h, 45 µM: 105 ± 9.39%
[1]; HK-2 cells, without HLM, raw data, read-out: cell viability(%), single values
  viability at 4 h, 60 µM: 80.5%
[1]; [5]
  viability at 4 h, 30 µM: 97.7 ± 10.7%
  viability at 4 h, 60 µM: 77.5 ± 4.69%
  viability at 4 h, 75 µM: 55 ± 11.3%
  viability at 4 h, 90 µM: 46.3 ± 12.5%
[1]; HK-2 cells, without HLMs, 4 h, mean
  viability at 4 h, 45 µM: 84.6 ± 13.8%
[2]; 24 h after administration
  BAK in kidney relative to liver: 1.37- to 1.54 fold
[2]; 24 h after single oral dose
  Exposure of BAK, Kidney, single rats: 0.7466 µg/g and 0.7844 µg/g and 0.7813 µg/g and 0.8035 µg/g
  Exposure of BAK, Liver, single rats: 0.5617 µg/g and 0.5502 µg/g and 0.5630 µg/g and 0.5314 µg/g
[2]; kidney, 24 h after single oral dose, read-out: Exposure of BAK, Kidney, mean
  concentration at 24 h: 755 ng/g
[2]; kidney, 24 h after single oral dose, read-out: Exposure of BAK, Kidney, single rats
  concentration at 24 h: 661 ng/g
[2]; liver, 24 h after single oral dose, read-out: Exposure of BAK, Liver, mean
  concentration at 24 h: 548 ng/g
[2]; liver, 24 h after single oral dose, read-out: Exposure of BAK, Liver, single rats
  concentration at 24 h: 531 ng/g

## CC1(C)[C@@H](O)CC[C@]2(C)[C@H]3C(=O)C=C4[C@@H]5C[C@@](C)(C(=O)O)CC[C@]5(C)CC[C@@]4(C)[C@]3(C)CC[C@@H]12 [GA, Glycyrrhetinic acid]
CYP3A4; HLMs, 30 min pre-incubation with NADPH, midazolam 10 µM, µM
  IC50: 1.53 ± 2.25 µM
CYP3A4; human, human liver microsomes, probe midazolam (10 µM), CYP3A4-30min, GA 0.10, vs control, read-out: Relative activity (%)
  activity at 30 min, 0.1 µM: 95.9%
CYP3A4; human, human liver microsomes, probe midazolam (10 µM), CYP3A4-30min, GA 1.00, vs control, read-out: Relative activity (%)
  activity at 30 min, 1 µM: 64.6%
CYP3A4; human, human liver microsomes, probe midazolam (10 µM), CYP3A4-30min, GA 6.25, vs control, read-out: Relative activity (%)
  activity at 30 min, 6.25 µM: 39.1%
CYP3A4; human, human liver microsomes, probe midazolam (10 µM), CYP3A4-30min, GA 31.25, vs control, read-out: Relative activity (%)
  activity at 30 min, 31.25 µM: 13.5%
CYP3A4; human, human liver microsomes, probe midazolam (10 µM), CYP3A4-30min, GA 100.00, vs control, read-out: Relative activity (%)
  activity at 30 min, 100 µM: 15.2%
CYP3A4; human, human liver microsomes, probe midazolam (10 µM), CYP3A4-30min, GA 156.25, vs control, read-out: Relative activity (%)
  activity at 30 min, 156.25 µM: 13.1%
CYP3A4; human, human liver microsomes, probe midazolam (10 µM), CYP3A4-30min, GA 312.50, vs control, read-out: Relative activity (%)
  activity at 30 min, 312.5 µM: 0.261%
CYP3A4; human, human liver microsomes, probe midazolam (10 µM), CYP3A4-30min, GA 1000.00, vs control, read-out: Relative activity (%)
  activity at 30 min, 1000 µM: 0.298%
CYP3A4; human, human liver microsomes, probe midazolam (10 µM), read-out: Relative activity (%)
  activity at 30 min, […]: 3.63%
CYP2D6; HLMs, 30 min pre-incubation with NADPH, dextromethorphan 10 µM
  IC50: 263 ± 1.05 µM
CYP2D6; human, human liver microsomes, probe dextromethorphan (10 µM), CYP2D6-30min, GA 0.10, vs control, read-out: Relative activity (%)
  activity at 30 min, 0.1 µM: 96.4%
CYP2D6; human, human liver microsomes, probe dextromethorphan (10 µM), CYP2D6-30min, GA 1.00, vs control, read-out: Relative activity (%)
  activity at 30 min, 1 µM: 92.4%
CYP2D6; human, human liver microsomes, probe dextromethorphan (10 µM), CYP2D6-30min, GA 6.25, vs control, read-out: Relative activity (%)
  activity at 30 min, 6.25 µM: 96%
CYP2D6; human, human liver microsomes, probe dextromethorphan (10 µM), CYP2D6-30min, GA 31.25, vs control, read-out: Relative activity (%)
  activity at 30 min, 31.25 µM: 91.1%
CYP2D6; human, human liver microsomes, probe dextromethorphan (10 µM), CYP2D6-30min, GA 100.00, vs control, read-out: Relative activity (%)
  activity at 30 min, 100 µM: 85.1%
CYP2D6; human, human liver microsomes, probe dextromethorphan (10 µM), CYP2D6-30min, GA 156.25, vs control, read-out: Relative activity (%)
  activity at 30 min, 156.25 µM: 81.7%
CYP2D6; human, human liver microsomes, probe dextromethorphan (10 µM), CYP2D6-30min, GA 312.50, vs control, read-out: Relative activity (%)
  activity at 30 min, 312.5 µM: 42%
CYP2D6; human, human liver microsomes, probe dextromethorphan (10 µM), CYP2D6-30min, GA 1000.00, vs control, read-out: Relative activity (%)
  activity at 30 min, 1000 µM: 29.3%
CYP2D6; human, human liver microsomes, probe dextromethorphan (10 µM), read-out: Relative activity (%)
  activity at 30 min, […]: 69.7%
CYP1A2; HLMs, 30 min pre-incubation with NADPH, phenacetin 25 µM
  IC50: 61.1 ± 1.13 µM
CYP1A2; human, human liver microsomes (HLMs), probe phenacetin 25 µM, CYP1A2-30min, GA 156.2500, vs control, read-out: Relative activity (%)
  activity at 30 min, 156.25 µM: 18.2%
CYP1A2; human, human liver microsomes, probe phenacetin 25 µM, CYP1A2-30min, GA 312.5000, vs control, read-out: Relative activity (%)
  activity at 30 min, 312.5 µM: 14.1%
CYP1A2; human, human liver microsomes, probe phenacetin 25 µM, CYP1A2-30min, GA 1000.0000, vs control, read-out: Relative activity (%)
  activity at 30 min, 1000 µM: 5.73%
CYP1A2; human, human liver microsomes, probe phenacetin 25 µM, read-out: Relative activity (%)
  activity at 30 min, […]: 10.3%
CYP1A2; human, human liver microsomes, probe phenacetin (25 µM), CYP1A2-30min, GA 0.1000, vs control, read-out: Relative activity (%)
  activity at 30 min, 0.1 µM: 95%
CYP1A2; human, human liver microsomes, probe phenacetin (25 µM), CYP1A2-30min, GA 1.0000, vs control, read-out: Relative activity (%)
  activity at 30 min, 1 µM: 84.3%
CYP1A2; human, human liver microsomes, probe phenacetin (25 µM), CYP1A2-30min, GA 6.2500, vs control, read-out: Relative activity (%)
  activity at 30 min, 6.25 µM: 89.2%
CYP1A2; human, human liver microsomes, probe phenacetin (25 µM), CYP1A2-30min, GA 31.2500, vs control, read-out: Relative activity (%)
  activity at 30 min, 31.25 µM: 70.9%
CYP1A2; human, human liver microsomes, probe phenacetin (25 µM), CYP1A2-30min, GA 100.0000, vs control, read-out: Relative activity (%)
  activity at 30 min, 100 µM: 31%
